Source: US6737383B1, “Herbicidal oxadiazolidines” (priority 1999, dated 2004)

What was measured:
wheat = assay: Test B pre/postemergence wheat; assay type: in vivo, Triticum aestivum
Procedure, shortened: (§1)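 Test chemicals in a non-phytotoxic solvent mixture with surfactant were sprayed preemergence onto planted seeds and postemergence onto plants 2 to 18 cm tall (1- to 4-leaf stage). After twelve to sixteen days in a greenhouse, injury was visually rated against untreated controls from 0 (no effect) to 10 (complete control).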

purple nutsedge = assay: Test B pre/postemergence purple nutsedge; assay type: in vivo, Cyperus rotundus
Procedure, shortened: as §1

giant foxtail = assay: Test B pre/postemergence giant foxtail; assay type: in vivo, Setaria faberii
Procedure, shortened: as §1

blackgrass = assay: Test B pre/postemergence blackgrass; assay type: in vivo, Alopecurus myosuroides
Procedure, shortened: as §1

[1] = Postemergence, Rate 250 g/ha, scale 0 to 10, 0 no effect, 10 complete control
[2] = Postemergence, Rate 1000 g/ha, scale 0 to 10 (0 no effect, 10 complete control)
[3] = Preemergence, Rate 125 g/ha, scale 0 to 10 (0 no effect, 10 complete control)
[4] = Preemergence, Rate 250 g/ha, scale of 0 to 10 where 0 is no effect and 10 is complete control
[5] = Preemergence, Rate 500 g/ha, scale 0 (no effect) to 10 (complete control)
[6] = Rate 125 g/ha, Postemergence, scale 0 to 10, 0 no effect, 10 complete control
[7] = Rate 1000 g/ha, Preemergence, scale 0 to 10 (0 no effect, 10 complete control)
[8] = Rate 500 g/ha, Postemergence, 0 to 10 scale (0 no effect, 10 complete control)
[9] = Postemergence, Rate 62 g/ha, scale of 0 to 10, 0 is no effect, 10 is complete control
[10] = Postemergence, Rate 500 g/ha, scale 0 to 10, 0 is no effect, 10 is complete control
[11] = Preemergence, Rate 62 g/ha, scale 0 to 10 (0 no effect, 10 complete control)
[12] = Preemergence, Rate 125 g/ha, scale 0 to 10, 0 is no effect, 10 is complete control
[13] = Preemergence, Rate 500 g/ha, scale of 0 to 10 where 0 is no effect and 10 is complete control
[14] = Rate 250 g/ha, Postemergence, scale of 0 to 10 where 0 is no effect and 10 is complete control
[15] = Postemergence, Rate 125 g/ha, scale 0 to 10, 0 is no effect, 10 is complete control
[16] = Postemergence, Rate 62 g/ha, scale 0 to 10, 0 is no effect, 10 is complete control
[17] = Postemergence, Rate 125 g/ha, scale of 0 to 10 where 0 is no effect and 10 is complete control
[18] = Preemergence, Rate 125 g/ha, scale of 0 to 10 where 0 is no effect and 10 is complete control
[19] = Preemergence, Rate 250 g/ha, scale 0 (no effect) to 10 (complete control)
[20] = Rate 62 g/ha, Preemergence, scale 0 to 10
[21] = Rate 250 g/ha, Postemergence, scale 0 to 10, 0 is no effect, 10 is complete control
[22] = Rate 500 g/ha, Postemergence, scale 0 to 10, 0 is no effect, 10 is complete control
[23] = Rate 500 g/ha, Preemergence, scale 0 to 10 (0 no effect, 10 complete control)
[24] = Rate 500 g/ha, Postemergence, scale 0 to 10, 0 no effect, 10 complete control
[25] = Preemergence, Rate 62 g/ha, scale of 0 to 10 where 0 is no effect and 10 is complete control
[26] = Rate 62 g/ha, Postemergence, scale of 0 to 10 where 0 is no effect and 10 is complete control
[27] = Rate 125 g/ha, Postemergence, scale 0 to 10
[28] = Rate 125 g/ha, Preemergence, scale of 0 to 10 where 0 is no effect and 10 is complete control

CC(C)N(C(=O)n1oc(=O)n(-c2ccc(Cl)cc2Cl)c1=O)c1ccc(F)cc1 [Compound 7, 4-(2,4-Dichlorophenyl)-N-(4-fluorophenyl)-N-(1-methylethyl)-3,5-dioxo-1,2,4-oxadiazolidine-2-carboxamide]
Wheat plant response rating (wheat; [1]): 0 | Wheat plant response rating (wheat; [2]): 2 | Plant response rating, Wheat (wheat; [3]): 0 | Plant response rating, Wheat (wheat; [4]): 0 | Wheat plant response rating (wheat; [5]): 0 | Wheat plant response rating (wheat; [6]): 0 | Plant response rating, Wheat (wheat; [7]): 0 | Plant response rating, Nutsedge (purple nutsedge; [3]): 0 | Plant response rating, Nutsedge (purple nutsedge; [4]): 0 | Nutsedge plant response rating (purple nutsedge; [5]): 0 | Plant response rating, Nutsedge (purple nutsedge; [7]): 0 | Giant foxtail plant response rating (giant foxtail; [1]): 3 | Giant foxtail plant response rating (giant foxtail; [2]): 6 | Plant response rating, Giant foxtail (giant foxtail; [3]): 2 | Plant response rating, Giant foxtail (giant foxtail; [4]): 5 | Giant foxtail plant response rating (giant foxtail; [5]): 8 | Giant foxtail plant response rating (giant foxtail; [6]): 0 | Giant foxtail plant response rating (giant foxtail; [8]): 5 | Plant response rating, Giant foxtail (giant foxtail; [7]): 9 | Blackgrass plant response rating (blackgrass; [1]): 2 | Blackgrass plant response rating (blackgrass; [2]): 6 | Plant response rating, Blackgrass (blackgrass; [3]): 0 | Plant response rating, Blackgrass (blackgrass; [4]): 0 | Blackgrass plant response rating (blackgrass; [5]): 0 | Blackgrass plant response rating (blackgrass; [6]): 0 | Blackgrass plant response rating (blackgrass; [8]): 3 | Plant response rating, Blackgrass (blackgrass; [7]): 2

CCC=CCn1c(=O)on(C(=O)N(c2ccc(Cl)cc2)C(C)C)c1=O [Compound 552]
Wheat plant response rating (wheat; [9]): 0 | Plant response rating, Wheat (wheat; [10]): 3 | Wheat plant response rating (wheat; [11]): 0 | Wheat plant response rating (wheat; [12]): 0 | Wheat plant response rating (0 to 10 scale) (wheat; Preemergence, Rate 250 g/ha): 0 | Wheat plant response rating (wheat; [13]): 4 | Plant response rating, Wheat (wheat; [14]): 0 | Nutsedge plant response rating (purple nutsedge; [9]): 0 | Nutsedge plant response rating (purple nutsedge; [15]): 0 | Plant response rating, Nutsedge (purple nutsedge; [10]): 0 | Nutsedge plant response rating (purple nutsedge; [11]): 0 | Nutsedge plant response rating (purple nutsedge; [12]): 0 | Nutsedge plant response rating (0 to 10 scale) (purple nutsedge; Preemergence, Rate 250 g/ha): 0 | Nutsedge plant response rating (purple nutsedge; [13]): 0 | Plant response rating, Nutsedge (purple nutsedge; [14]): 0 | Giant foxtail plant response rating (giant foxtail; [9]): 0 | Giant foxtail plant response rating (giant foxtail; [15]): 3 | Plant response rating, Giant foxtail (giant foxtail; [10]): 7 | Giant foxtail plant response rating (giant foxtail; [11]): 9 | Giant foxtail plant response rating (giant foxtail; [12]): 10 | Giant foxtail plant response rating (0 to 10 scale) (giant foxtail; Preemergence, Rate 250 g/ha): 10 | Giant foxtail plant response rating (giant foxtail; [13]): 10 | Plant response rating, Giant foxtail (giant foxtail; [14]): 3 | Blackgrass plant response rating (blackgrass; [9]): 0 | Blackgrass plant response rating (blackgrass; [15]): 0 | Plant response rating, Blackgrass (blackgrass; [10]): 7 | Blackgrass plant response rating (blackgrass; [11]): 0 | Blackgrass plant response rating (blackgrass; [12]): 0 | Blackgrass plant response rating (0 to 10 scale) (blackgrass; Preemergence, Rate 250 g/ha): 0 | Blackgrass plant response rating (blackgrass; [13]): 8 | Plant response rating, Blackgrass (blackgrass; [14]): 0

CC(C)N(C(=O)n1oc(=O)n(CC2=NOCCO2)c1=O)c1ccc(Cl)cc1 [Compound 740]
Plant response rating, Wheat (wheat; [16]): 0 | Wheat plant response rating (wheat; [17]): 0 | Plant response rating, Wheat (wheat; [18]): 0 | Wheat plant response rating (wheat; [19]): 0 | Wheat plant response rating (wheat; [20]): 0 | Wheat plant response rating (wheat; [21]): 0 | Wheat plant response rating (wheat; [22]): 4 | Wheat plant response rating (wheat; [23]): 3 | Plant response rating, Nutsedge (purple nutsedge; [16]): 0 | Nutsedge plant response rating (purple nutsedge; [17]): 0 | Plant response rating, Nutsedge (purple nutsedge; [18]): 0 | Nutsedge plant response rating (purple nutsedge; [19]): 0 | Nutsedge plant response rating (purple nutsedge; [20]): 0 | Nutsedge plant response rating (purple nutsedge; [21]): 0 | Nutsedge plant response rating (purple nutsedge; [22]): 0 | Nutsedge plant response rating (purple nutsedge; [23]): 0 | Plant response rating, Giant foxtail (giant foxtail; [16]): 2 | Giant foxtail plant response rating (giant foxtail; [17]): 7 | Plant response rating, Giant foxtail (giant foxtail; [18]): 9 | Giant foxtail plant response rating (giant foxtail; [19]): 9 | Giant foxtail plant response rating (giant foxtail; [20]): 4 | Giant foxtail plant response rating (giant foxtail; [21]): 8 | Giant foxtail plant response rating (giant foxtail; [22]): 9 | Giant foxtail plant response rating (giant foxtail; [23]): 10 | Plant response rating, Blackgrass (blackgrass; [16]): 3 | Blackgrass plant response rating (blackgrass; [17]): 3 | Plant response rating, Blackgrass (blackgrass; [18]): 6 | Blackgrass plant response rating (blackgrass; [19]): 8 | Blackgrass plant response rating (blackgrass; [20]): 3 | Blackgrass plant response rating (blackgrass; [21]): 4 | Blackgrass plant response rating (blackgrass; [22]): 7 | Blackgrass plant response rating (blackgrass; [23]): 9

Cc1cc(C)c(-n2c(=O)on(C(=O)N(c3ccc(Cl)cc3)C(C)C)c2=O)c(C)c1 [Compound 61]
Wheat plant response rating (wheat; [16]): 0 | Wheat plant response rating (wheat; [1]): 0 | Wheat plant response rating (wheat; [11]): 0 | Plant response rating, Wheat (wheat; [3]): 0 | Plant response rating, Wheat (wheat; [4]): 0 | Wheat plant response rating (wheat; [5]): 0 | Wheat plant response rating (wheat; [6]): 0 | Wheat plant response rating (wheat; [24]): 0 | Nutsedge plant response rating (purple nutsedge; [16]): 0 | Nutsedge plant response rating (purple nutsedge; [1]): 0 | Nutsedge plant response rating (purple nutsedge; [11]): 0 | Plant response rating, Nutsedge (purple nutsedge; [3]): 0 | Plant response rating, Nutsedge (purple nutsedge; [4]): 0 | Nutsedge plant response rating (purple nutsedge; [5]): 0 | Nutsedge plant response rating (purple nutsedge; [6]): 0 | Nutsedge plant response rating (purple nutsedge; [24]): 0 | Giant foxtail plant response rating (giant foxtail; [16]): 0 | Giant foxtail plant response rating (giant foxtail; [1]): 0 | Giant foxtail plant response rating (giant foxtail; [11]): 3 | Plant response rating, Giant foxtail (giant foxtail; [3]): 7 | Plant response rating, Giant foxtail (giant foxtail; [4]): 9 | Giant foxtail plant response rating (giant foxtail; [5]): 10 | Giant foxtail plant response rating (giant foxtail; [6]): 0 | Giant foxtail plant response rating (giant foxtail; [24]): 0 | Blackgrass plant response rating (blackgrass; [16]): 0 | Blackgrass plant response rating (blackgrass; [1]): 6 | Blackgrass plant response rating (blackgrass; [11]): 0 | Plant response rating, Blackgrass (blackgrass; [3]): 0 | Plant response rating, Blackgrass (blackgrass; [4]): 5 | Blackgrass plant response rating (blackgrass; [5]): 6 | Blackgrass plant response rating (blackgrass; [6]): 3 | Blackgrass plant response rating (blackgrass; [24]): 7

CC(C)N(C(=O)n1oc(=O)n(-c2cccnc2)c1=O)c1ccc(F)cc1 [Compound 234]
Wheat plant response rating (wheat; [25]): 0 | Wheat plant response rating (wheat; [4]): 0 | Plant response rating, Wheat (wheat; [13]): 0 | Wheat plant response rating (wheat; [26]): 0 | Wheat plant response rating (wheat; [27]): 0 | Wheat plant response rating (wheat; [28]): 0 | Plant response rating (0 to 10; 0 is no effect, 10 is complete control), Wheat (wheat; Rate 250 g/ha, Postemergence): 0 | Wheat plant response rating (wheat; [24]): 0 | Plant response rating, Nutsedge (purple nutsedge; [13]): 0 | Nutsedge plant response rating (purple nutsedge; [26]): 0 | Nutsedge plant response rating (purple nutsedge; [27]): 0 | Plant response rating (0 to 10; 0 is no effect, 10 is complete control), Nutsedge (purple nutsedge; Rate 250 g/ha, Postemergence): 0 | Nutsedge plant response rating (purple nutsedge; [24]): 0 | Giant foxtail plant response rating (giant foxtail; [25]): 0 | Giant foxtail plant response rating (giant foxtail; [4]): 0 | Plant response rating, Giant foxtail (giant foxtail; [13]): 0 | Giant foxtail plant response rating (giant foxtail; [26]): 0 | Giant foxtail plant response rating (giant foxtail; [27]): 0 | Giant foxtail plant response rating (giant foxtail; [28]): 0 | Plant response rating (0 to 10; 0 is no effect, 10 is complete control), Giant foxtail (giant foxtail; Rate 250 g/ha, Postemergence): 0 | Giant foxtail plant response rating (giant foxtail; [24]): 0 | Blackgrass plant response rating (blackgrass; [25]): 0 | Blackgrass plant response rating (blackgrass; [4]): 0 | Plant response rating, Blackgrass (blackgrass; [13]): 0 | Blackgrass plant response rating (blackgrass; [26]): 0 | Blackgrass plant response rating (blackgrass; [27]): 0 | Blackgrass plant response rating (blackgrass; [28]): 0 | Plant response rating (0 to 10; 0 is no effect, 10 is complete control), Blackgrass (blackgrass; Rate 250 g/ha, Postemergence): 0 | Blackgrass plant response rating (blackgrass; [24]): 0
